This experiment deals with T1, NLRP3 (Homo sapiens, UniProt Q96P20).
T1 construct: endogenous in cells; host or cells: THP-1 (human monocyte, PMA-differentiated, LPS-primed, nigericin-stimulated)
The experiment in a line: IC50 of NLRP3 inhibitors in reducing IL-1β secretion by THP-1 cells (PMA, LPS, nigericin; ELISA). The experiment is classed as cell-based. The settings on record: compound + nigericin 1 h. How it is done: Test Example 1 Experiment on Detection of IC50 of NLRP3 Inhibitors in Reducing the Level of IL-1β Secretion by THP-1 Cells
In this experiment, we use the human monocyte THP-1 to study the inhibitory activity of NLRP3 inhibitor on the secretion of IL-Iβ by cells. Human THP-1 cells are treated with crotonol-12-tetradecanoate-13-acetate (PMA) to differentiate into mature macrophage models. Then, according to the two stages of inflammasome formation in cells (assembly and activation), the cells are stimulated with lipopolysaccharide (LPS) and nigericin in turn, ultimately promoting the extracellular release of IL-1β by THP-1 cells. The first stage of inflammasome formation involves stimulating cells with LPS (lipopolysaccharide), an agonist of the Toll-like receptor TLR4, to activate the expression of the inflammasome-associated proteins NLRP3, caspase 1, and pro-IL-1β, a precursor of IL-1β. The second stage of inflammasome formation involves the addition of the potassium ion carrier nigericin, which causes a series of membrane potential changes in THP-1 cells, destroys the cell membrane structure, causes the efflux of cellular potassium ions, further stimulates the oligomerization of NLRP3 monomers to form NLRP3 oligomers, and begins to recruit ASC and pro-caspase-1 to assemble the NLRP3 inflammasome complex containing a large amount of pro-caspase-1. The pro-caspase-1 on the activated NLRP3 inflammasome is enzymatically self-activated to form a large amount of active caspase-1. The activated caspase-1 further enzymatically promotes the conversion of pro-IL-1β into mature IL-1β that can be secreted.
(1) Cell suspensions were collected. The cells were centrifuged at 1000 rpm for 4 min, the supernatant was discarded, the cells were resuspended with 1 mL of test medium, and then the cell culture medium was gently pipetted up and down with a pipette and its tip to break up the cell aggregates. After counting the cells, the THP-1 cells were resuspended with complete RPMI medium 1640 containing PMA and seeded into 96-well plates and cultured in a 37° C., 5% CO2 incubator for 72 h.
(2) The culture medium was taken out from each well with an automatic plate washer dispenser EL406 and each well was rinsed twice with PBS. To each well, 96 μL of RPMI 1640 medium containing LPS was added. The cells were cultured in a 37° C., 5% CO2 incubator for 4 h.
(3) To each well, 2 μL of the compound and 2 μL of nigericin sodium salt were added, and the final compound concentration selected was 5000 nM, 1000 nM, 200 nM, 40 nM, 8 nM, 1.6 nM, 0.32 nM, 0 nM, respectively. The cells were cultured in a 37° C., 5% CO2 incubator for 1 h.
(4) An appropriate amount of supernatant was taken out, diluted 100 times, and the content of IL-1β in the supernatant was detected using Human IL-1 beta Valukine ELISA kit.

T1 sequence (Q96P20 whole entry): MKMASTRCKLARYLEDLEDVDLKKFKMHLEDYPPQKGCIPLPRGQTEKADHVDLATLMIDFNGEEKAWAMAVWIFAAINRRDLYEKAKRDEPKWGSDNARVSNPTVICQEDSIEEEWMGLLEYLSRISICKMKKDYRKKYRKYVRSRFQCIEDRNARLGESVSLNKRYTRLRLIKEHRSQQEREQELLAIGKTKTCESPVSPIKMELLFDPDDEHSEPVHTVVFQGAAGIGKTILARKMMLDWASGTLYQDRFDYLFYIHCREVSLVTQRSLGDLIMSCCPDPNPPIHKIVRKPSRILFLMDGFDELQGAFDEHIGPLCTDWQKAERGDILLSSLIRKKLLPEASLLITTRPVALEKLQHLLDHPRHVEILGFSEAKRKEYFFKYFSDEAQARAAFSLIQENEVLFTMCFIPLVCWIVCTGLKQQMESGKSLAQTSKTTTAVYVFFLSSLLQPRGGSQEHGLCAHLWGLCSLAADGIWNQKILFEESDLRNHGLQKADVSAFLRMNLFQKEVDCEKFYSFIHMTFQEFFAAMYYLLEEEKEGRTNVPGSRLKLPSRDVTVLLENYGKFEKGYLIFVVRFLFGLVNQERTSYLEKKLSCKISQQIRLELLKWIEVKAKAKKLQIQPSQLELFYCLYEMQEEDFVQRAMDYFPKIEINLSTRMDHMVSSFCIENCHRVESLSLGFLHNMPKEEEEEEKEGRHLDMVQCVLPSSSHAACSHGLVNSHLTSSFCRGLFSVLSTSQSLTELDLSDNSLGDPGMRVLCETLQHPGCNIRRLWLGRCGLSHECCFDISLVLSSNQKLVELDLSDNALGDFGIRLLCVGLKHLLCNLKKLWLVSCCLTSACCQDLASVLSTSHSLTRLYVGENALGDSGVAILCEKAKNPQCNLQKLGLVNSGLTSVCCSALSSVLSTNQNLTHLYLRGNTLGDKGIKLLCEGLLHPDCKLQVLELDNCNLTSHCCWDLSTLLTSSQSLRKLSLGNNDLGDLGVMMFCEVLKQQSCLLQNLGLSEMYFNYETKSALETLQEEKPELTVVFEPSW

With `Cc1cc(C(F)(F)F)cc(O)c1-c1nnc(NCC(C)(C)O)c2cc(C#N)ccc12` [Compound 007, 4-((2-hydroxy-2-methylpropyl)amino)-1-(2-hydroxy-6-methyl-4-(trifluoromethyl)phenyl) phthalazin-6-carbonitrile], the concentration for half-maximal inhibition (IC50) was 29 nM.

`CC#Cc1ccc2c(-c3ccc(C(F)(F)F)cc3O)nnc(NCC(C)(C)O)c2c1` [Compound 069, 2-(4-((2-hydroxy-2-methylpropyl)amino)-6-(prop-1-yn-1-yl)phthalazin-1-yl)-5-(trifluoromethyl)phenol]: the IC50 turned out to be 31 nM.

As for `CC#Cc1ccc2c(-c3ccc(C(F)(F)F)cc3O)nnc(N[C@@H]3CCCN(C)C3)c2c1` [Compound 068, (R)-2-(4-((1-methylpiperidin-3-yl)amino)-6-(prop-1-yn-1-yl)phthalazin-1-yl)-5-(trifluoromethyl)phenol], the IC50 was found to be 39 nM.

In the case of `CC#Cc1ccc2c(-c3ccc(C(F)(F)F)cc3O)nnc(N[C@@H]3CCC[C@H](O)C3)c2c1` [Compound 070], the IC50 was determined as 42 nM.

With `Cc1cc(Cl)cc(O)c1-c1nnc(NCC(C)(C)O)c2cc(-n3ccnn3)ccc12` [Compound 058, 5-chloro-2-(4-((2-hydroxy-2-methylpropyl)amino)-6-(1H-1,2,3-triazol-1-yl)phthalazin-1-yl)-3-methylphenol], the IC50 was 158 nM.

On to `CC(C)(O)CNc1nnc(-c2ccc3sccc3c2O)c2ccc(C#N)cc12` [Compound 018, 4-((2-hydroxy-2-methylpropyl)amino)-1-(4-hydroxybenzo[b]thiophen-5-yl) phthalazine-6-carbonitrile], for which the IC50 was determined as 50 nM.

For the molecule `CC#Cc1ccc2c(-c3ccc(Cl)cc3O)nnc(N[C@@H]3CCN(CCO)C3=O)c2c1` [Compound 074, (R)-3-((4-(4-chloro-2-hydroxyphenyl)-7-(prop-1-yn-1-yl)phthalazin-1-yl)amino)-1-(2-hydroxyethyl)pyrrolidin-2-one], the half-maximal inhibitory concentration (IC50) is 7.2 nM.

On to `NC(=O)CN1CCC[C@@H](Nc2nnc(-c3ccc(Cl)cc3O)c3ccncc23)C1` [Compound 009, (R)-2-(3-((1-(4-chloro-2-hydroxyphenyl)pyrido[3,4-d]pyridazin-4-yl)amino)piperidin-1-yl)acetamide], for which the IC50 is 28 nM.

In the case of `CC#Cc1ccc2c(-c3c(C)cc(Cl)cc3O)nnc(NCC(C)(C)O)c2c1` [Compound 024, 5-chloro-2-(4-((2-hydroxy-2-methylpropyl)amino)-6-(1-propyn-1-yl)phthalazin-1-yl)-3-methylphenol], the 50% inhibitory concentration (IC50) was found to be 19 nM.

For the molecule `CC#Cc1ccc2c(-c3ccc(Cl)cc3O)nnc(N[C@@H]3CC(=O)N(CCO)C3)c2c1` [Compound 073, (R)-4-((4-(4-chloro-2-hydroxyphenyl)-7-(prop-1-yn-1-yl)phthalazin-1-yl)amino)-1-(2-hydroxyethyl)pyrrolidin-2-one], the IC50 worked out at 51 nM.

In the case of `O=C(C1CC1)N1CCC[C@@H](Nc2nnc(-c3ccc(Cl)cc3O)c3ccncc23)C1` [Compound 006, (R)-(3-((1-(4-chloro-2-hydroxyphenyl)pyrido[3,4-d]pyridazin-4-yl)amino)piperidin-1-yl)(cyclopropyl)methanone], the IC50 came out at 12 nM.

With `Cc1cc(Cl)cc(O)c1-c1nnc(NCC(C)(C)O)c2cc(-c3cnn(C4CC4)c3)ccc12` [Compound 039, 5-chloro-2-(6-(1-cyclopropyl-1H-pyrazol-4-yl)-4-((2-hydroxy-2-methylpropyl)amino)phthalazin-1-yl)-3-methylphenol], the half-maximal inhibitory concentration (IC50) came out at 73 nM.

Turning to `CC(C)(C(=O)NC1CC1)N1CCC[C@@H](Nc2nnc(-c3ccc(Cl)cc3O)c3ccncc23)C1` [Compound 043, (R)-2-(3-((1-(4-chloro-2-hydroxyphenyl)pyrido[3,4-d]pyridazin-4-yl)amino)piperidin-1-yl)-N-cyclopropyl-2-methylpropionamide], the IC50 was 34 nM.

In the case of `CC#Cc1ccc2c(-c3c(C)cc(Cl)cc3O)nnc(NC[C@@H](C)O)c2c1` (mixture of isomers) [Compound 035], the IC50 is 14 nM.

Take `C[C@H](C(N)=O)N1CCC[C@@H](Nc2nnc(-c3ccc(Cl)cc3O)c3ccncc23)C1` [Compound 017, (R)-2-((R)-3-((1-(4-chloro-2-hydroxyphenyl)pyrido[3,4-d]pyridazin-4-yl)amino)piperidin-1-yl) propionamide]: the concentration for half-maximal inhibition (IC50) is 17 nM.

In the case of `CC#Cc1ccc2c(-c3ccc(Cl)cc3O)nnc(NCC(C)(C)O)c2c1` [Compound 036, 5-chloro-2-(4-((2-hydroxy-2-methylpropyl)amino)-6-(prop-1-yn-1-yl)phthalazin-1-yl)phenol], the IC50 was found to be 51 nM.

Take `Oc1cc(Cl)ccc1-c1nnc(N[C@@H]2CCCC(=C(F)F)C2)c2cnccc12` [Compound 080, (R)-5-chloro-2-(4-((3-(difluoromethylene)cyclohexyl)amino)pyridin[3,4-d]pyridazin-1-yl)phenol]: the IC50 stood at 36 nM.

On to `CC#Cc1ccc2c(-c3ccc(C(F)(F)F)cc3O)nnc(N[C@H]3C[C@@](C)(O)C3)c2c1` [Compound 065, 2-(4-(((1S, 3S)-3-hydroxy-3-methylcyclobutyl)amino)-6-(prop-1-yn-1-yl)phthalazin-1-yl)-5-(trifluoromethyl)phenol], for which the IC50 amounted to 13 nM.

Take `Cc1cc(Cl)cc(O)c1-c1nnc(NCC(C)(C)O)c2cc(-c3cnn(C)c3)ccc12` [Compound 038]: the concentration for half-maximal inhibition (IC50) came to 42 nM.

In the case of `CC#Cc1ccc2c(-c3c(O)cc(C(F)(F)F)cc3F)nnc(N[C@H]3C[C@@](C)(O)C3)c2c1` [Compound 066, 3-fluoro-2-(4-(((1S,3S)-3-hydroxy-3-methylcyclobutyl)amino)-6-(prop-1-yn-1-yl)phthalazin-1-yl)-5-(trifluoromethyl)phenol], the IC50 was 20 nM.

Turning to `Cc1cc(Cl)cc(O)c1-c1nnc(NCC(C)(C)O)c2cc(-c3ccn(C)n3)ccc12` [Compound 040, 5-chloro-2-(4-((2-hydroxy-2-methylpropyl)amino)-6-(1-methyl-1H-pyrazol-3-yl)phthalazin-1-yl)-3-methylphenol], the IC50 is 54 nM.

In the case of `CC#Cc1ccc2c(-c3ccc(Cl)cc3O)nnc(N[C@@H]3CCC(=O)N(CCO)C3)c2c1` [Compound 076, (R)-5-((4-(4-chloro-2-hydroxyphenyl)-7-(prop-1-yn-1-yl)phthalazin-1-yl)amino)-1-(2-hydroxyethyl) piperidin-2-one], the IC50 was found to be 35 nM.

`CC(C(=O)NC1CC1)N1CCC[C@@H](Nc2nnc(-c3ccc(Cl)cc3O)c3ccncc23)C1` (mixture of isomers) [Compound 041, 2-((R)-3-((1-(4-chloro-2-hydroxyphenyl)pyrido[3,4-d]pyridazin-4-yl)amino)piperidin-1-yl)-N-cyclopropylpropionamide]: the IC50 turned out to be 14 nM.

On to `CC#Cc1ccc2c(-c3ccc(Cl)cc3O)nnc(N[C@@H]3CCCN(CCO)C3=O)c2c1` [Compound 075, (R)-3-((4-(4-chloro-2-hydroxyphenyl)-7-(prop-1-yn-1-yl)phthalazin-1-yl)amino)-1-(2-hydroxyethyl) piperidin-2-one], for which the IC50 came to 7 nM.

Regarding `NC(=O)N1CCC[C@@H](Nc2nnc(-c3ccc(Cl)cc3O)c3ccncc23)C1` [Compound 008, (R)-3-((1-(4-chloro-2-hydroxyphenyl)pyrido[3,4-d]pyridazin-4-yl)amino)piperidin-1-formamide], the IC50 was 39 nM.

Take `CC#Cc1ccc2c(-c3c(C)cc(Cl)cc3O)nnc(NCC(C)(C)O)c2c1` [Compound 024-1]: the IC50 is 108 nM.

Consider `C[C@@H](C(N)=O)N1CCC[C@@H](Nc2nnc(-c3ccc(Cl)cc3O)c3ccncc23)C1` [Compound 016, (S)-2-((R)-3-((1-(4-chloro-2-hydroxyphenyl)pyrido[3,4-d]pyridazin-4-yl)amino)piperidin-1-yl) propionamide], for which the IC50 is 11 nM.

Regarding `Cn1cc(-c2ccc3c(-c4ccc(Cl)cc4O)nnc(NCC(C)(C)O)c3c2)cn1` [Compound 004, 5-chloro-2-(4-((2-hydroxy-2-methylpropyl)amino)-6-(1-methyl-1H-pyrazol-4-yl)phthalazin-1-yl)phenol], the IC50 worked out at 63 nM.

On to `CC#Cc1ccc2c(-c3ccc(C(F)(F)F)cc3O)nnc(N[C@@H]3CCCC[C@H]3O)c2c1` [Compound 061, 2-(4-(((1R,2R)-2-hydroxycyclohexyl)amino)-6-(prop-1-yn-1-yl)phthalazin-1-yl)-5-(trifluoromethyl)phenol], for which the IC50 was 23 nM.

(Values after US20260216182A1, “PYRIDAZINE NLRP3 INHIBITOR COMPOUND, PHARMACEUTICAL COMPOSITION, AND PREPARATION METHOD THEREFOR AND USE THEREOF” (CHANGCHUN GENESCIENCE PHARMACEUTICAL CO., LTD., priority 2022, published 2026).)
